Results as given in patent US12472272B2, “Radiolabelled compounds for diagnosis or treatment of prostate-specific membrane antigen- expressing cancer” (PROVINCIAL HEALTH SERVICES AUTHORITY, priority 2019, dated 2025).

How the values were obtained:
LNCaP tumors = test: PET/CT imaging of ^68Ga-labeled tracers; assay type: in vivo, mice; conditions: FIG. 3
Procedure: (§1) Imaging and biodistribution experiments were performed using NODSCID 1L2RγKO male mice. Mice were anesthetized by inhalation with 2% isoflurane in oxygen, and implanted subcutaneously with 1×10^7 LNCaP cells behind left shoulder. Mice were imaged or used in biodistribution studies when the tumor grew up to reach 5-8 mm in diameter during 5-6 weeks.
(§2) PET imaging experiments were conducted using Siemens Inveon micro PET/CT scanner. Each tumor bearing mouse was injected 6-8 MBq of Ga-68 labeled tracer through the tail vein under anesthesia (2% isoflurane in oxygen). The mice were allowed to recover and roam freely in their cage. After 50 min, the mice were sedated again with 2% isoflurane in oxygen inhalation and positioned in the scanner. A 10-min CT scan was conducted first for localization and attenuation correction after segmentation for reconstructing the PET images. Then, a 10-min static PET imaging was performed to determined uptake in tumor and other organs. The mice were kept warm by a heating pad during acquisition. For imaging studies acquired at 3 h post-injection (p.i.), the mice were placed in the micro PET/CT scanner at 170 min p.i. Then, the CT acquisitions were conducted as described above, a 15-min static PET imaging was performed to determined uptake in tumor and other organs.

[1] = test system: PSMA-expressing LNCAP cancer xenografts; test: Biodistribution of ^68Ga-labeled PSMA-targeting tracers; assay type: in vivo, mice; conditions: 1 h post-injection
Procedure: as §1, §2
For biodistribution studies, the mice were injected with the radiotracer as described above. At predetermined time points (1 or 3 h for ^68Ga studies; 1, 4, 24, 72, or 120 h for ^177Lu studies), the mice was anesthetized with 2% isoflurane inhalation, and euthanized by CO2 inhalation. Blood was withdrawn immediately from the heart, and the organs/tissues of interest were collected. The collected organs/tissues were weighed and counted using a Perkin Elmer (Waltham, MA) Wizard2 2480 gamma counter. The uptake in each organ/tissue was normalized to the injected dose using a standard curve, and expressed as the percentage of the injected dose per gram of tissue (% ID/g).

Compound | uptake in PET/CT images (LNCaP tumors) | Tissue (% ID/g): Adrenal glands [1] [% ID/g] | Tissue (% ID/g): Blood [1] [% ID/g] | Tissue (% ID/g): Bone [1] [% ID/g] | Tissue (% ID/g): Brain [1] [% ID/g] | Tissue (% ID/g): Fat [1] [% ID/g] | Tissue (% ID/g): Heart [1] [% ID/g] | Tissue (% ID/g): Intestine [1] [% ID/g] | Tissue (% ID/g): Kidneys [1] [% ID/g] | Tissue (% ID/g): Lacrimal [1] [% ID/g] | Tissue (% ID/g): Liver [1] [% ID/g] | Tissue (% ID/g): Lungs [1] [% ID/g] | Tissue (% ID/g): Muscle [1] [% ID/g] | Tissue (% ID/g): Pancreas [1] [% ID/g] | Tissue (% ID/g): Salivary [1] [% ID/g] | Tissue (% ID/g): Seminal [1] [% ID/g] | Tissue (% ID/g): Spleen [1] [% ID/g] | Tissue (% ID/g): Stomach [1] [% ID/g] | Tissue (% ID/g): Tail [1] [% ID/g] | Tissue (% ID/g): Testes [1] [% ID/g] | other results
CCCCCC[C@H](NC(=O)[C@H]1CC[C@H](CNC(=O)CN2CCN(CC(=O)[O-])CCN(CC(=O)[O-])CCN(CC(=O)[O-])CC2)CC1)C(=O)NCCCC[C@H](NC(=O)N[C@@H](CCC(=O)O)C(=O)O)C(=O)O.[68Ga+3] [^68Ga-HTK03026] | higher uptake was observed in LNCap tumor xenografts, kidneys and urinary bladders | 1.84 ± 0.95 | 0.70 ± 0.19 | 0.54 ± 0.20 | 0.06 ± 0.02 | 0.45 ± 0.11 | 0.30 ± 0.06 | 0.29 ± 0.06 | 68.5 ± 28.2 | 1.33 ± 0.90 | 0.24 ± 0.06 | 0.82 ± 0.26 | 0.28 ± 0.13 | 0.71 ± 1.04 | 0.83 ± 0.22 | 0.43 ± 0.31 | 1.34 ± 0.54 | 0.10 ± 0.03 | 0.90 ± 0.56 | 0.35 ± 0.22 | Tissue (% ID/g): Thyroid [1]: 0.35 ± 0.08 % ID/g; Tissue (% ID/g): Tumor [1]: 12.5 ± 2.90 % ID/g; Tissue (% ID/g): Urine [1]: 575 ± 245 % ID/g; tumor-to-background contrast ratio Tumor: Blood [1]: 18.6 ± 5.54; tumor-to-background contrast ratio Tumor: Muscle [1]: 52.8 ± 24.9; tumor-to-background contrast ratio Tumor: kidney [1]: 0.22 ± 0.15; Tissue (% ID/g): Tumor ([1]; listed as 68Ga-labeled HTK03026): ~13 % ID/g
O=C([O-])CN1CCN(CC(=O)[O-])CCN(CC(=O)NC[C@H]2CC[C@H](C(=O)N[C@@H](Cc3ccc4cc5ccccc5cc4c3)C(=O)NCCCC[C@H](NC(=O)N[C@@H](CCC(=O)O)C(=O)O)C(=O)O)CC2)CCN(CC(=O)[O-])CC1.[68Ga+3] [^68Ga-HTK03027] | higher uptake was observed in LNCap tumor xenografts, kidneys and urinary bladders | 3.55 ± 2.33 | 1.56 ± 0.57 | 0.70 ± 0.33 | 0.06 ± 0.03 | 1.03 ± 0.67 | 0.56 ± 0.24 | 0.44 ± 0.12 | 85.6 ± 73.5 | 1.00 ± 0.56 | 0.46 ± 0.10 | 1.66 ± 0.67 | 0.48 ± 0.37 | 0.57 ± 0.20 | 1.86 ± 0.91 | 10.6 ± 10.9 | 3.36 ± 2.54 | 0.17 ± 0.10 | 0.98 ± 0.38 | 0.56 ± 0.18 | Tissue (% ID/g): Thyroid [1]: 0.76 ± 0.33 % ID/g; Tissue (% ID/g): Tumor [1]: 13.3 ± 5.44 % ID/g; Tissue (% ID/g): Urine [1]: 844 ± 645 % ID/g; tumor-to-background contrast ratio Tumor: Blood [1]: 8.57 ± 2.83; tumor-to-background contrast ratio Tumor: Muscle [1]: 35.0 ± 18.7; tumor-to-background contrast ratio Tumor: kidney [1]: 0.27 ± 0.20; Tissue (% ID/g): Tumor ([1]; listed as 68Ga-labeled HTK03027): ~13 % ID/g
O=C([O-])CN1CCN(CC(=O)[O-])CCN(CC(=O)NC[C@H]2CC[C@H](C(=O)N[C@@H](Cc3ccc4ccc5cccc6ccc3c4c56)C(=O)NCCCC[C@H](NC(=O)N[C@@H](CCC(=O)O)C(=O)O)C(=O)O)CC2)CCN(CC(=O)[O-])CC1.[68Ga+3] [^68Ga-HTK03029] | higher uptake was observed in LNCap tumor xenografts, kidneys and urinary bladders | 4.91 ± 1.57 | 3.93 ± 0.91 | 0.92 ± 0.14 | 0.09 ± 0.02 | 1.57 ± 0.42 | 1.25 ± 0.27 | 0.77 ± 0.11 | 198 ± 49.3 | 1.06 ± 0.49 | 1.32 ± 0.63 | 3.59 ± 0.69 | 0.63 ± 0.10 | 0.94 ± 0.18 | 3.27 ± 1.02 | 6.74 ± 10.7 | 7.08 ± 5.08 | 0.31 ± 0.08 | 2.18 ± 0.65 | 1.02 ± 0.13 | Tissue (% ID/g): Thyroid [1]: 1.57 ± 0.32 % ID/g; Tissue (% ID/g): Tumor [1]: 13.9 ± 6.58 % ID/g; Tissue (% ID/g): Urine [1]: 175 ± 178 % ID/g; tumor-to-background contrast ratio Tumor: Blood [1]: 3.39 ± 1.01; tumor-to-background contrast ratio Tumor: Muscle [1]: 21.3 ± 7.50; tumor-to-background contrast ratio Tumor: kidney [1]: 0.07 ± 0.02; Tissue (% ID/g): Tumor ([1]; listed as 68Ga-labeled HTK03029): ~13 % ID/g
